US20260315475A1 (priority 2023, published 2026)
Several values for one entry are separate records, joined by “and”; a condition that tells them apart may be missing. Equal values may be shown once. Read-outs that look alike come from different tables or passages of the source.

Experiments:
CYP2D6 [1] = conditions: role: substrate; in vitro; cited from earlier work
[2] = Safety and tolerability in the Phase I hepatic impairment study; assay type: in vivo, human
Excerpt: The secondary objectives were: to evaluate the safety and tolerability of a single oral dose of belumosudil in participants with mild, moderate, or severe hepatic impairment, and in healthy participants with normal hepatic function; to assess the PK of the belumosudil metabolites following a single oral dose of belumosudil in participants with mild, moderate, or severe hepatic impairment compared to healthy participants with normal hepatic function. […]
The secondary/safety endpoints were: incidence and severity of adverse events (AEs), clinical laboratory parameters (hematology, clinical chemistry, coagulation, and urinalysis), 12-lead electrocardiogram (ECG) parameters, vital signs parameters, and physical examinations.
Treatment-emergent AEs (TEAEs) were summarized by severity and relationship to the investigational medicinal product (IMP). The frequency of TEAEs was summarized by Medical Dictionary for Regulatory Activities system organ class and preferred term, and hepatic function. Summary and frequency TEAE tables were presented for all causalities and for those considered related to the IMP.
Serum biochemistry, hematology, and coagulation data were summarized by hepatic function. In addition, all serum biochemistry, hematology, and urinalysis data outside the clinical reference ranges were listed by parameter and treatment. Vital signs and ECG data were summarized by hepatic function, together with changes from baseline.

[3] = Phase I single-dose open-label pharmacokinetic study in participants with normal hepatic function and varying degrees of hepatic impairment; assay type: in vivo, human; conditions: for Vd/F / AUC(0-inf) / AUC(0-t) / AUC(0-t) at 24 h / CL/F / Cmax / Tmax / half-life: human, po, 200 mg; for Vd/F / AUC(0-inf) / AUC(0-t) / AUC(0-t) at 24 h / CL/F / Cmax / Tmax / half-life / t1/2 / tlast: plasma; for Vd/F: read-out: Vz/F; for Tmax / tlast: median
Excerpt: The primary objective was to assess the pharmacokinetic (PK) of belumosudil following a single oral dose of belumosudil in participants with mild, moderate, or severe hepatic impairment compared to healthy participants with normal hepatic function.
The secondary objectives were: to evaluate the safety and tolerability of a single oral dose of belumosudil in participants with mild, moderate, or severe hepatic impairment, and in healthy participants with normal hepatic function; to assess the PK of the belumosudil metabolites following a single oral dose of belumosudil in participants with mild, moderate, or severe hepatic impairment compared to healthy participants with normal hepatic function.
Approximately 38 participants were to be enrolled into the following groups based on their hepatic function, as determined according to the Child-Pugh system. • Group 1 (n=approximately 16): matched healthy participants with normal hepatic function • Group 2 (n=8): participants with mild hepatic impairment (Child-Pugh Class A [score of 5 or 6]) • Group 3 (n=8): participants with moderate hepatic impairment (Child-Pugh Class B [score of 7 to 9]) • Group 4 (n=6): participants with severe hepatic impairment (Child-Pugh Class C [score of 10 to 14]).
Healthy participants with normal hepatic function (Group 1) were demographically matched by age (±10 years), sex, and body mass index (BMI; +20%) to participants with hepatic impairment (Groups 2, 3, and 4). Participants with normal hepatic function could be matched to multiple participants across the 3 hepatic impairment groups (mild, moderate, and severe), but could not be matched to more than 1 participant within the same impairment group.
Pharmacokinetic blood samples were obtained from predose until 48 hours postdose (Day 3).
Summary tables, mean (+standard deviation [SD]) figures, overlaying individual figures, and individual figures by hepatic function and time postdose were provided for plasma PK concentrations. Summary tables by hepatic function were provided for all PK parameters, with the exception of terminal phase regression-related diagnostic parameters (λz, λz upper, λ z lower, λz number of points, R2-adj, and % AUCextrap), which were listed only.
All other PK parameters were regarded as secondary and were not participant to inferential statistical analysis.

CYP2D6 [4] = conditions: role: inhibitor; in vitro; cited from earlier work
[5] = pregnant rats, cited from earlier work
P-gp [6] = conditions: role: inhibitor; clinically relevant concentrations, in vitro; cited from earlier work
CYP3A4 = conditions: role: substrate; in vitro; cited from earlier work
[7] = dogs; cited from earlier work
P-gp [8] = conditions: role: substrate; in vitro; cited from earlier work
CYP2C19 = conditions: role: inhibitor; in vitro; cited from earlier work
CYP1A2 = conditions: role: inhibitor; in vitro; cited from earlier work
[9] = single dose, high-fat high-calorie meal vs fasted, healthy subjects; cited from earlier work
[10] = cited from earlier work
[11] = in vivo; cited from earlier work
[12] = moderate hepatic impairment group
[13] = single oral 200 mg belumosudil, fed, mild hepatic impairment, geometric mean (CV %)
[14] = single oral 200 mg belumosudil, fed, moderate hepatic impairment, geometric mean (CV %)
[15] = single oral 200 mg belumosudil, fed, normal hepatic function, geometric mean (CV %)
[16] = single oral 200 mg belumosudil, fed, severe hepatic impairment, geometric mean (CV %)
[17] = single oral 200 mg belumosudil, fed, mild hepatic impairment
[18] = single oral 200 mg belumosudil, fed, moderate hepatic impairment
[19] = single oral 200 mg belumosudil, fed, normal hepatic function
[20] = single oral 200 mg belumosudil, fed, severe hepatic impairment

With `CC(C)NC(=O)COc1cccc(-c2nc(Nc3ccc4[nH]ncc4c3)c3ccccc3n2)c1` [belumosudil, 2-{3-[4-(1H-indazol-5-ylamino)-2-quinazolinyl]phenoxy}-N-(propan-2-yl) acetamide] as the compound, how does the “metabolism by CYP2D6” value (CYP2D6 [1]) read?
Its value is “to a lesser extent”.

And the “12-lead ECG parameters” value ([2]; individual participants)?
Its value is “no clinically significant changes”.

What about the vital signs parameters ([2]; individual participants) of the same compound?
Its vital signs parameters is “no clinically significant changes”.

What about the “number of SAEs” value [2, 12] of the same compound?
Its value is 1.

And the “number of TEAEs” value [2, 12]?
The value was 2 TEAEs.

And the “participants reporting TEAEs” value ([2]; moderate hepatic impairment group, 1 participant)?
Its value is 12.5%.

And the “AEs related to study drug” value ([2]; single oral 200 mg)?
Its value is “no reports of AEs related to study drug”.

And the deaths ([2]; single oral 200 mg)?
Its deaths is “no reports of deaths”.

What about the “discontinuation due to an AE” value ([2]; single oral 200 mg) of the same compound?
The value was “no participants discontinued due to an AE”.

What about the “clinical chemistry, hematology, coagulation, or urinalysis” value ([2]; throughout the study) of the same compound?
Its value is “no clinically significant changes”.

And the physical examinations ([2]; throughout the study)?
Its physical examinations is “no clinically significant findings”.

And the Vd/F ([3]; geometric means across participants with hepatic impairment (mild, moderate, severe))?
The Vd/F was 76.6 to 105 L.

What about the Vd/F [3, 13] of the same compound?
Its Vd/F is 105 L.

And the Vd/F [3, 14]?
The Vd/F was 76.6 L.

What about the Vd/F [3, 15] of the same compound?
The Vd/F was 193 L.

And the Vd/F [3, 16]?
The Vd/F was 95.7 L.

What about the AUC(0-inf) [3, 13] of the same compound?
The AUC(0-inf) was 16000 ng·h/mL.

What about the AUC(0-t) [3, 13] of the same compound?
Its AUC(0-t) is 15800 ng·h/mL.

And the AUC(0-t) at 24 h [3, 13]?
The AUC(0-t) at 24 h was 15400 ng·h/mL.

What about the CL/F [3, 13] of the same compound?
The CL/F was 208 mL/min.

And the Cmax [3, 13]?
The Cmax was 2590 ng/mL.

What about the Tmax [3, 17] of the same compound?
The Tmax was 2.98 h.

What about the AUC(0-inf) [3, 14] of the same compound?
Its AUC(0-inf) is 23700 ng·h/mL.

What about the AUC(0-t) [3, 14] of the same compound?
The AUC(0-t) was 23100 ng·h/mL.

What about the AUC(0-t) at 24 h [3, 14] of the same compound?
The AUC(0-t) at 24 h was 21300 ng·h/mL.

And the CL/F [3, 14]?
Its CL/F is 140 mL/min.

What about the Cmax [3, 14] of the same compound?
Its Cmax is 2490 ng/mL.

And the half-life [3, 14]?
The half-life was 6.3 h.

What about the Tmax [3, 18] of the same compound?
Its Tmax is 4 h.

And the AUC(0-inf) [3, 15]?
Its AUC(0-inf) is 12800 ng·h/mL.

And the AUC(0-t) [3, 15]?
The AUC(0-t) was 12000 ng·h/mL.

And the AUC(0-t) at 24 h [3, 15]?
Its AUC(0-t) at 24 h is 11300 ng·h/mL.

What about the CL/F [3, 15] of the same compound?
The CL/F was 260 mL/min.

And the Cmax [3, 15]?
The Cmax was 2190 ng/mL.

And the half-life [3, 15]?
Its half-life is 8.58 h.

And the Tmax [3, 19]?
The Tmax was 3.5 h.

And the AUC(0-inf) [3, 16]?
The AUC(0-inf) was 30100 ng·h/mL.

And the AUC(0-t) [3, 16]?
The AUC(0-t) was 29600 ng·h/mL.

And the AUC(0-t) at 24 h [3, 16]?
Its AUC(0-t) at 24 h is 23400 ng·h/mL.

And the CL/F [3, 16]?
Its CL/F is 110 mL/min.

What about the Cmax [3, 16] of the same compound?
The Cmax was 2170 ng/mL.

What about the half-life [3, 16] of the same compound?
The half-life was 10 h.

What about the Tmax [3, 20] of the same compound?
The Tmax was 5.02 h.

What about the “concentration profile and exposure” value ([3]; one participant with moderate impairment) of the same compound?
The value was “greatly reduced concentration profile and exposure”.

And the t1/2 [3, 13]?
Its t1/2 is 5.86 h and 5.86 (45.2) h.

And the tlast [3, 17]?
Its tlast is 36.0 h.

And the t1/2 [3, 14]?
Its t1/2 is 6.30 (44.4) [7] h.

What about the tlast [3, 18] of the same compound?
Its tlast is 48.0 h.

What about the t1/2 [3, 15] of the same compound?
Its t1/2 is 8.58 (48.8) [13] h.

And the tlast [3, 19]?
Its tlast is 48.0 h.

And the t1/2 [3, 16]?
The t1/2 was 10.00 (40.7) h.

What about the tlast [3, 20] of the same compound?
The tlast was 48.0 h.

And the “concentration profiles and exposures” value ([3]; two participants with severe impairment)?
The value was “greatly reduced concentration profiles and exposures”.

And the CYP2D6 inhibition (CYP2D6 [4])?
The CYP2D6 inhibition was “inhibitor”.

What about the “doses with fetal malformations” value ([5]; oral, pilot study, absence of anus and tail, omphalocele, dome shaped head) of the same compound?
Its value is at least 50 mg/kg/day.

And the “maternal exposure (AUC) causing embryo-fetal mortality and malformations vs patients” value ([5]; organogenesis)?
Its value is “less than those in patients at the recommended dose”.

What about the P-gp inhibition (P-gp [6]) of the same compound?
Its P-gp inhibition is “inhibits”.

And the “metabolism by CYP3A4” value (CYP3A4)?
Its value is “primarily metabolized”.

And the “dose with spermatozoa degeneration” value [7]?
The value was 35 mg/kg/day.

What about the P-gp substrate (P-gp [8]) of the same compound?
Its P-gp substrate is “substrate”.

What about the CYP2C19 inhibition (CYP2C19) of the same compound?
The CYP2C19 inhibition was “inhibitor”.

What about the CYP1A2 inhibition (CYP1A2) of the same compound?
Its CYP1A2 inhibition is “inhibitor”.

And the “increase in AUC with food” value [9]?
Its value is 2 times.

And the “increase in Cmax with food” value [9]?
Its value is 2.2 times.

And the “dose with decreased follicular development in ovaries” value ([10]; rats)?
Its value is 275 mg/kg/day.

What about the “reversal of reproductive organ changes” value ([10]; recovery period, rats and dogs) of the same compound?
Its value is “partially or fully reversed”.

What about the “activity in animal models of chronic GVHD” value [11] of the same compound?
The value was “demonstrates activity”.
